Data published in PubChem BioAssay AID248 (DTP/NCI, 2004).
Toxic doses and inconclusive results are not listed. No stated cut-off is given here; in the data, active means T/C of 150% or more; inactive means T/C below 125%. Square brackets hold non-standard residues; d marks the D form. Peptide text beside a SMILES is read from it. * marks the point of attachment. ξ: configuration not given here. Octanoyl = CCCCCCCC(=O)*; ξP = O=C(O)C1CCCN1

Test system: L1210 leukemia ip in BDF1 mice, survival T/C
Experiment: NCI In Vivo Anticancer Drug Screen. Data for tumor model L1210 Leukemia (intraperitoneal) in B6D2F1 (BDF1) mice
Details: endpoint: mean survival time, higher = longer survival
Summary of the method: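 In this screen, tumor-bearing mice given compound are compared to those given vehicle, and their survival values are reported as a treated-to-control quotient.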

[1] = dose: 100.0 mg/kg/injection, schedule: Q01DX001 (ip), vehicle: Klucel (hydroxypropylcellulose) (HPC)
[2] = dose: 200.0 mg/kg/injection, schedule: Q01DX001 (ip), vehicle: Klucel (hydroxypropylcellulose) (HPC)
[3] = dose: 400.0 mg/kg/injection, schedule: Q01DX001 (ip), vehicle: Klucel (hydroxypropylcellulose) (HPC)
[4] = dose: 100.0 mg/kg/injection, schedule: Q01DX001 (ip), vehicle: saline
[5] = dose: 200.0 mg/kg/injection, schedule: Q01DX001 (ip), vehicle: saline
[6] = dose: 400.0 mg/kg/injection, schedule: Q01DX001 (ip), vehicle: saline
[7] = dose: 50.0 mg/kg/injection, schedule: Q01DX009 (ip), vehicle: saline with Tween-80
[8] = dose: 100.0 mg/kg/injection, schedule: Q01DX009 (ip), vehicle: saline with Tween-80
[9] = dose: 100.0 mg/kg/injection, schedule: Q04DX002 (ip), vehicle: saline with Tween-80
[10] = dose: 200.0 mg/kg/injection, schedule: Q01DX009 (ip), vehicle: saline with Tween-80
[11] = dose: 200.0 mg/kg/injection, schedule: Q04DX002 (ip), vehicle: saline with Tween-80
[12] = dose: 100.0 mg/kg/injection, schedule: Q04DX003 (ip), vehicle: saline with Tween-80
[13] = dose: 200.0 mg/kg/injection, schedule: Q04DX003 (ip), vehicle: saline with Tween-80
[14] = dose: 400.0 mg/kg/injection, schedule: Q04DX003 (ip), vehicle: saline with Tween-80
[15] = dose: 100.0 mg/kg/injection, schedule: Q01DX001 (ip), vehicle: carboxymethylcellulose (CMC)
[16] = dose: 6.25 mg/kg/injection, schedule: Q04DX003 (ip), vehicle: Klucel (hydroxypropylcellulose) (HPC)
[17] = dose: 12.5 mg/kg/injection, schedule: Q04DX003 (ip), vehicle: Klucel (hydroxypropylcellulose) (HPC)
[18] = dose: 100.0 mg/kg/injection, schedule: Q01DX009 (ip), vehicle: Klucel (hydroxypropylcellulose) (HPC)
[19] = dose: 200.0 mg/kg/injection, schedule: Q01DX009 (ip), vehicle: Klucel (hydroxypropylcellulose) (HPC)
[20] = dose: 400.0 mg/kg/injection, schedule: Q01DX009 (ip), vehicle: Klucel (hydroxypropylcellulose) (HPC)
[21] = dose: 50.0 mg/kg/injection, schedule: Q04DX003 (ip), vehicle: Klucel (hydroxypropylcellulose) (HPC)
[22] = dose: 100.0 mg/kg/injection, schedule: Q04DX003 (ip), vehicle: Klucel (hydroxypropylcellulose) (HPC)
[23] = dose: 200.0 mg/kg/injection, schedule: Q04DX003 (ip), vehicle: Klucel (hydroxypropylcellulose) (HPC)
[24] = dose: 100.0 mg/kg/injection, schedule: Q04DX002 (ip), vehicle: saline
[25] = dose: 200.0 mg/kg/injection, schedule: Q04DX002 (ip), vehicle: saline
[26] = dose: 400.0 mg/kg/injection, schedule: Q04DX002 (ip), vehicle: saline
[27] = dose: 400.0 mg/kg/injection, schedule: Q04DX003 (ip), vehicle: Klucel (hydroxypropylcellulose) (HPC)

Measured: T/C

CCCCCCCC(=O)N1CCCC1C(=O)NCC(=O)NCC(=O)O (stereo not drawn) (Octanoyl-[ξP]-Gly-Gly-OH)
inactive: [1] 115 % of control | [2] 95 % of control | [3] 95 % of control

Nc1[nH]c(=O)[nH]c(=O)c1N=Nc1ccc(S(=O)(=O)Nc2ccccn2)cc1
inactive: [4] 98 % of control | [5] 96 % of control | [6] 104 % of control

CC1CC(NC(=O)CC#N)CC(C)(C)C1 (stereo not given)
inactive: [7] 93 % of control | [8] 90 % of control | [9] 94 % of control | [10] 97 % of control | [11] 102 % of control

CNCCCN1c2ccccc2C(C)(C)c2ccccc21
inactive: [4] 97 % of control

CCC(=O)P(=O)(OC)OC
inactive: dose: 100.0 mg/kg/injection, schedule: Q04DX003 (ip), vehicle: saline 102 % of control | dose: 200.0 mg/kg/injection, schedule: Q04DX003 (ip), vehicle: saline 102 % of control | dose: 400.0 mg/kg/injection, schedule: Q04DX003 (ip), vehicle: saline 95 % of control

O=[N+]([O-])C1(CO)COC(c2ccccc2)OC1 (stereo not given)
inactive: dose: 100.0 mg/kg/injection, schedule: Q01DX009 (ip), vehicle: water 91 % of control | [12] 111 % of control | dose: 200.0 mg/kg/injection, schedule: Q01DX009 (ip), vehicle: water 98 % of control | [13] 108 % of control | dose: 400.0 mg/kg/injection, schedule: Q01DX009 (ip), vehicle: water 92 % of control | [14] 95 % of control

Cc1ccccc1SCN(CSc1ccccc1C)C(C)(C)CC(C)(C)C
inactive: [15] 101 % of control

CC[CH2][Pb]([CH2]CC)([CH2]CC)[O]C(C)=O
inactive: [16] 100 % of control | [17] 103 % of control | dose: 50.0 mg/kg/injection, schedule: Q01DX001 (ip), vehicle: saline 94 % of control | [4] 94 % of control

CC(=N/Nc1ccccc1)/C(C)=N/Nc1ccccc1
inactive: [1] 101 % of control | [18] 88 % of control | [2] 91 % of control | [19] 95 % of control | [3] 102 % of control | [20] 98 % of control

CCC1(O)C(=O)OCc2c1cc(C)[nH]c2=O (stereo not given)
inactive: [16] 86 % of control | [17] 94 % of control | dose: 25.0 mg/kg/injection, schedule: Q04DX003 (ip), vehicle: Klucel (hydroxypropylcellulose) (HPC) 86 % of control | [21] 89 % of control | [22] 91 % of control | [23] 86 % of control

CC(=O)Oc1ccc(OC(C)=O)c2c1C1C=CC2C1
inactive: [4] 103 % of control | [5] 103 % of control | [6] 101 % of control

CCCCC(CC)(CC)OC(=O)c1ccc([N+](=O)[O-])cc1
inactive: [9] 87 % of control | [11] 106 % of control | dose: 400.0 mg/kg/injection, schedule: Q04DX002 (ip), vehicle: saline with Tween-80 98 % of control

CO/N=C(\C)CSS(=O)(=O)OC
inactive: [24] 93 % of control | [25] 96 % of control | [26] 86 % of control

CCCCOP(=S)(OCCCC)[S][Hg][c]1ccco1
inactive: dose: 25.0 mg/kg/injection, schedule: Q04DX002 (ip), vehicle: alcohol 97 % of control | dose: 50.0 mg/kg/injection, schedule: Q04DX002 (ip), vehicle: alcohol 97 % of control

COc1cc2cncc(CC(=O)c3ccc4c(c3)OCO4)c2cc1OC
inactive: [12] 106 % of control | [13] 88 % of control

COc1ccc(N=Nc2ccccc2)cc1
inactive: [22] 95 % of control | [23] 94 % of control | [27] 94 % of control

Brc1cscc1-c1cccc2ccccc12
inactive: [8] 86 % of control | [10] 86 % of control

COc1cc(Nc2nc(N)ncc2N)cc(OC)c1OC
inactive: [12] 95 % of control | [13] 98 % of control | [14] 92 % of control

O=C(O)c1cc(C(=O)Nc2ccc(C3=NCCN3)cc2)c(C(=O)O)cc1C(=O)Nc1ccc(C2=NCCN2)cc1
inactive: dose: 15.0 mg/kg/injection, schedule: Q01DX Z (ip), vehicle: carboxymethylcellulose (CMC) 95 % of control | dose: 30.0 mg/kg/injection, schedule: Q01DX Z (ip), vehicle: carboxymethylcellulose (CMC) 98 % of control | dose: 60.0 mg/kg/injection, schedule: Q01DX Z (ip), vehicle: carboxymethylcellulose (CMC) 101 % of control | dose: 120.0 mg/kg/injection, schedule: Q01DX Z (ip), vehicle: carboxymethylcellulose (CMC) 95 % of control

C=C1CCOC2(C(O)C(C)(O)CO)NC(=O)C1(O)NC2=O (stereo not given)
inactive: [24] 96 % of control | [25] 107 % of control | [26] 104 % of control

Cc1ccc(S(=O)(=O)Nc2ccccc2N=Cc2ccc(N(CCCl)CCCl)cc2)cc1
inactive: [15] 115 % of control | dose: 200.0 mg/kg/injection, schedule: Q01DX001 (ip), vehicle: carboxymethylcellulose (CMC) 106 % of control | dose: 400.0 mg/kg/injection, schedule: Q01DX001 (ip), vehicle: carboxymethylcellulose (CMC) 90 % of control

O=C1CCCCc2cc(O)c([N+](=O)[O-])cc21
inactive: [7] 101 % of control | [8] 95 % of control

O=C(C(=C(c1ccccc1)c1ccccc1)N1CCCCC1)c1ccccc1
inactive: [4] 96 % of control | [18] 92 % of control | [5] 97 % of control | [19] 92 % of control | [6] 97 % of control | [20] 92 % of control

OCCN(Cc1cccnc1)Cc1ccccn1
inactive: dose: 9.38 mg/kg/injection, schedule: Q01DX001 (ip), vehicle: saline 94 % of control | dose: 18.75 mg/kg/injection, schedule: Q01DX001 (ip), vehicle: saline 100 % of control

O=C(CCCC(=O)N/N=C/c1cccc2ccccc12)N/N=C/c1cccc2ccccc12
inactive: dose: 50.0 mg/kg/injection, schedule: Q01DX001 (ip), vehicle: other 93 % of control | dose: 100.0 mg/kg/injection, schedule: Q01DX001 (ip), vehicle: other 91 % of control | dose: 200.0 mg/kg/injection, schedule: Q01DX001 (ip), vehicle: other 91 % of control | dose: 400.0 mg/kg/injection, schedule: Q01DX001 (ip), vehicle: other 87 % of control

CCC(C)(C)NC1=C(Cl)C(=O)c2ccccc2C1=O
inactive: dose: 6.25 mg/kg/injection, schedule: Q01DX001 (ip), vehicle: saline with Tween-80 95 % of control | dose: 12.5 mg/kg/injection, schedule: Q01DX001 (ip), vehicle: saline with Tween-80 106 % of control

O=c1oc(-c2ccccc2I)nc2ccccc12
inactive: [21] 88 % of control | [18] 95 % of control | [22] 103 % of control | [19] 97 % of control | [23] 97 % of control | [20] 88 % of control | [27] 104 % of control

Oc1ccc(N=Cc2ccccc2)cc1
inactive: dose: 100.0 mg/kg/injection, schedule: Q04DX002 (ip), vehicle: gum acacia 98 % of control | dose: 200.0 mg/kg/injection, schedule: Q04DX002 (ip), vehicle: gum acacia 109 % of control | dose: 400.0 mg/kg/injection, schedule: Q04DX002 (ip), vehicle: gum acacia 106 % of control

NC(CSCc1ccccc1)(CSCc1ccccc1)C(=O)O
inactive: dose: 25.0 mg/kg/injection, schedule: Q01DX009 (ip), vehicle: other 107 % of control | dose: 50.0 mg/kg/injection, schedule: Q01DX009 (ip), vehicle: other 105 % of control | dose: 100.0 mg/kg/injection, schedule: Q01DX009 (ip), vehicle: other 100 % of control | dose: 200.0 mg/kg/injection, schedule: Q01DX009 (ip), vehicle: other 91 % of control | dose: 400.0 mg/kg/injection, schedule: Q01DX009 (ip), vehicle: other 113 % of control
